Measured values taken from ChEMBL document CHEMBL5154876, “Design, synthesis and promising anti-tumor efficacy of novel imidazo[1,2-a]pyridine derivatives as potent autotaxin allosteric inhibitors” (Eur J Med Chem, 2022).
Each block holds one compound with its values, some of them ahead of it.

How the values were obtained:
[1] = molecular target: Autotaxin (Homo sapiens, UniProt Q13822); assay: Negative allosteric modulation activity against human ATX using FS-3 as substrate preincubated for 45 mins followed by substrate addition and measured every 30 mins by multi-mode microplate reader
[2] = tested on: Hep 3B2; assay: Cytotoxicity against human Hep3B cells assessed as inhibition of cell growth incubated for 72 hrs by MTT assay; format: functional, cell-based
[3] = tested on: MCF7; assay: Cytotoxicity against human MCF-7 cells assessed as inhibition of cell growth incubated for 72 hrs by MTT assay; format: functional, cell-based; conditions: MCF7, 72 h
[4] = tested on: A549; assay: Cytotoxicity against human A549 cells assessed as inhibition of cell growth incubated for 72 hrs by MTT assay; format: functional, cell-based; conditions: A549, 72 h
[5] = tested on: MDA-MB-231; assay: Cytotoxicity against human MDA-MB-231 cells assessed as inhibition of cell growth incubated for 72 hrs by MTT assay; format: functional, cell-based; conditions: MDA-MB-231, 72 h
[6] = tested on: NCI-H1581; assay: Cytotoxicity against human NCI-H1581 cells assessed as inhibition of cell growth incubated for 72 hrs by MTT assay; format: functional, cell-based; conditions: NCI-H1581, 72 h
[7] = tested on: RAW264.7; assay: Cytotoxicity against mouse RAW264.7 cells assessed as inhibition of cell growth incubated for 72 hrs by MTT assay; format: functional, cell-based; conditions: RAW264.7, 72 h
[8] = tested on: NCI-H2228; assay: Cytotoxicity against human H2228 cells assessed as inhibition of cell growth incubated for 72 hrs by MTT assay; format: functional, cell-based; conditions: NCI-H2228, 72 h

Compound: CCc1nc2c(C)cc(-c3ccc(CN4CCCC4)cc3)cn2c1NC(=O)OCc1cc(Cl)cc(Cl)c1
IC50 [1]: 0.14 µM

Compound: CCc1nc2c(C)cc(-c3ccc(CN4CCSCC4)cc3)cn2c1NC(=O)OCc1ccc(F)c(F)c1
IC50 [1]: 0.287 µM
IC50 [2]: > 20 µM
IC50 [4]: > 20 µM
IC50 [5]: > 20 µM

Compound: CCc1nc2c(C)cc(-c3ccc(CN4CCN(CC)CC4)cc3)cn2c1NC(=O)OCc1ccc(C(F)(F)F)cc1
IC50 [1]: 0.234 µM

Compound: CCc1nc2c(C)cc(-c3ccc(CN4CCN(C)CC4)cc3)cn2c1NC(=O)OCc1ccc(F)c(F)c1
IC50 [1]: 0.154 µM
IC50 [2]: 4.94 µM
IC50 [3]: 6.44 µM
IC50 [4]: > 20 µM
IC50 [7]: 3.59 µM
IC50 [5]: 6.23 µM

Compound: O=C(CCN1CCN(C(=O)OCc2cc(Cl)cc(Cl)c2)CC1)c1ccc2[nH]c(=O)oc2c1
IC50 [2]: > 20 µM
IC50 [8]: > 20 µM
IC50 [3]: > 20 µM
IC50 [4]: > 20 µM
IC50 [6]: > 20 µM
IC50 [7]: 9.58 µM
IC50 [5]: > 20 µM

Compound: CCc1nc2c(C)cc(-c3ccc(CN4CCCCC4)cc3)cn2c1NC(=O)OCc1cc(Cl)cc(Cl)c1
IC50 [1]: 0.164 µM

Compound: CCc1nc2c(C)cc(-c3ccc(CN4CCN(C)CC4)cc3)cn2c1NC(=O)OCc1ccc(C(F)(F)F)cc1
IC50 [1]: 0.313 µM
IC50 [2]: > 20 µM
IC50 [3]: > 20 µM
IC50 [4]: > 20 µM
IC50 [7]: > 20 µM
IC50 [5]: 4.31 µM

Compound: CCc1nc2c(C)cc(N3CCN(CC(=O)N4CC(O)C4)CC3)cn2c1N(C)c1nc(-c2ccc(F)cc2)c(C#N)s1 [ZIRITAXESTAT]
IC50 [2]: > 20 µM
IC50 [8]: > 20 µM
IC50 [3]: > 20 µM
IC50 [4]: > 20 µM
IC50 [6]: > 20 µM
IC50 [7]: > 20 µM
IC50 [5]: > 20 µM

Compound: CCc1nc2c(C)cc(-c3ccc(CN4CCN(C)CC4)cc3)cn2c1NC(=O)OCc1cc(Cl)cc(Cl)c1
IC50 [1]: 0.217 µM
IC50 [2]: 4.9 µM
IC50 [3]: 5.78 µM
IC50 [4]: 4.02 µM
IC50 [7]: 1.41 µM

Compound: CCc1nc2c(C)cc(-c3ccc(CO)cc3)cn2c1NC(=O)OCc1ccc(F)c(F)c1
IC50 [1]: > 1 µM

Compound: CCc1nc2c(C)cc(-c3ccc(CN4CCN(CC)CC4)cc3)cn2c1NC(=O)OCc1ccc(F)c(F)c1
IC50 [1]: 0.171 µM

Further lines, with some results ahead:

IC50 [1]: 0.034 µM
Compound: CCc1nc2c(C)cc(-c3ccc(CNCCO)cc3)cn2c1NC(=O)OCc1cc(Cl)cc(Cl)c1
IC50 [2]: > 20 µM
IC50 [3]: > 20 µM
IC50 [4]: > 20 µM
IC50 [5]: > 20 µM

IC50 [1]: 0.071 µM
Compound: CCc1nc2c(C)cc(-c3ccc(CN(CCO)CCO)cc3)cn2c1NC(=O)OCc1cc(Cl)cc(Cl)c1

IC50 [1]: 0.081 µM
Compound: CCc1nc2c(C)cc(-c3ccc(CN4CCN(CCO)CC4)cc3)cn2c1NC(=O)OCc1ccc(C(F)(F)F)cc1
IC50 [2]: 6.09 µM
IC50 [3]: 7.01 µM
IC50 [4]: 5.06 µM
IC50 [6]: 5.67 µM
IC50 [7]: 1.98 µM

IC50 [1]: 0.091 µM
Compound: CCc1nc2c(C)cc(-c3ccc(CN4CCSCC4)cc3)cn2c1NC(=O)OCc1cc(Cl)cc(Cl)c1
IC50 [2]: > 20 µM
IC50 [3]: > 20 µM
IC50 [4]: > 20 µM

IC50 [1]: 0.0335 µM
Compound: CCc1nc2c(C)cc(-c3ccc(CN4CCOCC4)cc3)cn2c1NC(=O)OCc1ccc(OC)c(Cl)c1
IC50 [2]: > 20 µM
IC50 [8]: > 20 µM
IC50 [3]: > 20 µM
IC50 [4]: > 20 µM
IC50 [6]: > 20 µM
IC50 [7]: > 20 µM
IC50 [5]: > 20 µM

IC50 [1]: 0.041 µM
Compound: CCc1nc2c(C)cc(-c3ccc(CN4CCN(CCO)CC4)cc3)cn2c1NC(=O)OCc1ccc(F)c(F)c1
IC50 [2]: 10.6 µM
IC50 [8]: 9.65 µM
IC50 [3]: 9.51 µM
IC50 [4]: 5.58 µM
IC50 [7]: 5 µM
IC50 [5]: 4.83 µM

IC50 [1]: 0.017 µM
Compound: CCc1nc2c(C)cc(-c3ccc(CN4CCC(O)CC4)cc3)cn2c1NC(=O)OCc1cc(Cl)cc(Cl)c1
IC50 [8]: 7.36 µM
IC50 [3]: 5.32 µM
IC50 [6]: 4.8 µM
IC50 [7]: 4.58 µM
IC50 [5]: 1.58 µM

IC50 [1]: 0.129 µM
Compound: CCc1nc2c(C)cc(-c3ccc(CN4CCOCC4)cc3)cn2c1NC(=O)OCc1cc(Cl)cc(Cl)c1

IC50 [1]: 0.0071 µM
Compound: CCc1nc2c(C)cc(-c3ccc(CN4CCN(CCO)CC4)cc3)cn2c1NC(=O)OCc1ccc(F)cc1
IC50 [2]: > 20 µM
IC50 [8]: > 20 µM
IC50 [3]: > 20 µM
IC50 [4]: > 20 µM
IC50 [6]: > 20 µM
IC50 [7]: > 20 µM
IC50 [5]: > 20 µM

IC50 [1]: 0.0513 µM
Compound: CCc1nc2c(C)cc(-c3ccc(CN4CCOCC4)cc3)cn2c1NC(=O)OCc1ccc(F)cc1
IC50 [2]: > 20 µM
IC50 [8]: > 20 µM
IC50 [3]: > 20 µM
IC50 [4]: > 20 µM
IC50 [6]: > 20 µM
IC50 [7]: > 20 µM
IC50 [5]: > 20 µM

IC50 [1]: 0.024 µM
Compound: CCc1nc2c(C)cc(-c3ccc(CN4CCC(C)CC4)cc3)cn2c1NC(=O)OCc1cc(Cl)cc(Cl)c1
IC50 [2]: 4.85 µM
IC50 [8]: 5.15 µM
IC50 [3]: 3.98 µM
IC50 [4]: 8.18 µM
IC50 [6]: 4.04 µM
IC50 [7]: 2.13 µM
IC50 [5]: 5.83 µM

IC50 [1]: 0.0264 µM
Compound: CCc1nc2c(C)cc(-c3ccc(CN4CCC[C@H]4CO)cc3)cn2c1NC(=O)OCc1ccc(F)cc1
IC50 [2]: > 20 µM
IC50 [8]: > 20 µM
IC50 [3]: > 20 µM
IC50 [4]: > 20 µM
IC50 [6]: > 20 µM
IC50 [7]: > 20 µM
IC50 [5]: > 20 µM

IC50 [1]: 0.041 µM
Compound: CCc1nc2c(C)cc(-c3ccc(CN4CCC[C@H]4CO)cc3)cn2c1NC(=O)OCc1cc(Cl)cc(Cl)c1
IC50 [4]: 5.78 µM
IC50 [7]: 2.51 µM
